Source: EP4656722A1, “OR2AT4 RECEPTOR AGONIST APTAMERS AND USES THEREOF” (Fundacion Instituto De Investigacion Sanitaria Fundacion …, priority 2024, dated 2025)

Legend:
OR2AT4 [1] = biological target: T1, OR2AT4 (Homo sapiens, UniProt A6NND4); design: host or cells: keratinocytes; settings: cited from earlier work
T1 sequence (A6NND4 1-320): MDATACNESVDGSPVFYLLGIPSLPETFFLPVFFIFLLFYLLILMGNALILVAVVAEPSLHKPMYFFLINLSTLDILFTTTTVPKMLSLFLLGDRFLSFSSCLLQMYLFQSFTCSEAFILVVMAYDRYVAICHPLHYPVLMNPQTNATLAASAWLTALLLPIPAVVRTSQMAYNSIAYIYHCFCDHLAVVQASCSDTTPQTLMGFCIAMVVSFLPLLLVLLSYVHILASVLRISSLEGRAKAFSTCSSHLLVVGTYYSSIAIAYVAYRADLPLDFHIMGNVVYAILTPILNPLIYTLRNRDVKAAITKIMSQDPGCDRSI

[2] = tested on: HaCaT-OR2AT4-Myc-DDK transfectants; experiment: XTT cell proliferation assay in HaCaT-OR2AT4-Myc-DDK transfectants; type: cell-based, human; settings: 250 µM, days 1, 3 and 5, compared to vehicle (Control)
OR2AT4 [3] = biological target: T1, OR2AT4; experiment: CRE-luciferase reporter activity assay in 293 cells stably expressing OR2AT4; type: cell-based; design: GeneScript (pcDNA3.1-Hygro for GNAL); settings: synthetic odorants 400 µM, 4 hours, clone 293-OR2AT4-Golf-clone#2
From the text: • Figure 1. Generation of a 293 clone that stably expresses the OR2AT4 receptor. The 293-OR2AT4-Golf transfectant was generated by means of calcium phosphate cotransfection into 293 cells of the expression plasmids for the OR2AT4 receptor (NM_001005285, pCMV6-Entry-OR2AT4-Neo; Origene) and for the Golf subunit of G proteins, generated by means of subcloning the hGNAL gene (NM_001261443.1) into the expression plasmid (pcDNA3.1-Hygro, GeneScript). Stable transfectants were selected on medium containing neomycin and hygromycin B, and clone 293-OR2AT4-Golf-clone#2 was obtained by limiting dilution. […] Replicates of the reactions for the target and housekeeping genes, which were performed simultaneously for each template cDNA analysed, were included in triplicate. […] Data normalisation was calculated by means of the formula [Luc/Renilla(N)-Luc/Renilla(lowest)]/[Luc/Renilla(highest)-Luc/Renilla(lowest)]. […] Means were calculated using three replicates per condition, n=3. […] Statistical significance was determined using Student's t test (*p<0.05 and **p<0.001, with respect to control). […] The anti proliferative effect of the aptamers on the K562 cell line was evaluated in a colorimetric proliferation assay based on the reduction of tetrazolium salts (XTT). […]

telogen effluvium = settings: solution containing 1% Sandalore applied for 24 weeks, 60 patients with telogen effluvium; cited from earlier work
human hair follicles = settings: ex vivo; cited from earlier work

cAMP production (normalised luciferase activity) (OR2AT4 [3]) | SMILES | activation of the OR2AT4 receptor expressed in keratinocytes (OR2AT4 [1]) | cell proliferation [2] | degree of hair loss, hair volume, terminal/vellous hair ratio, anagen/catagen-telogen ratio, patient's self-esteem (telogen effluvium) | apoptosis (human hair follicles) | hair growth (human hair follicles) | production of the growth factor IGF-1 (human hair follicles)
activated cAMP production | CC1=CCC(CCC(C)CO)C1(C)C (stereo not shown) [Brahmanol, sandal cyclopentane] | capable of activating the OR2AT4 receptor | significant proliferative response | – | – | – | –
activated cAMP production | CC1=CCC(CCC(C)C(C)O)C1(C)C (stereo not shown) [Sandalore, sandal pentanol] | capable of activating the OR2AT4 receptor | significant proliferative response | improvement | reducing apoptosis | promotes hair growth | increasing the production
